Results: patent US7462636B2, “Broadspectrum substituted benzisoxazole sulfonamide HIV protease inhibitors” (priority 2002, dated 2008)
Read-outs that look alike come from different tables or passages of the source.

Legend:
HIV-1 strain LAI = experiment: Cellular anti-HIV assay (MT4 cells, MTT), wild type strain; assay type: cell-based
Method: The compounds of the present invention were examined for anti-viral activity in a cellular assay. […] The cellular assay was performed according to the following procedure.
(§1) HIV- or mock-infected MT4 cells were incubated for five days in the presence of various concentrations of the inhibitor. At the end of the incubation period, all HIV-infected cells have been killed by the replicating virus in the control cultures in the absence of any inhibitor. Cell viability is measured by measuring the concentration of MTT, a yellow, water soluble tetrazolium dye that is converted to a purple, water insoluble formazan in the mitochondria of living cells only. Upon solubilization of the resulting formazan crystals with isopropanol, the absorbance of the solution is monitored at 540 nm. The values correlate directly to the number of living cells remaining in the culture at the completion of the five day incubation. The inhibitory activity of the compound was monitored on the virus-infected cells and was expressed as EC50 and EC90. […] Wherever results are reported as e.g. pEC50 or pCC50 values, the result is expressed as the negative logarithm of the result expressed as EC50 or CC50 respectively.
(§2) As a measure of the broad spectrum activity of the present compounds, the fold resistance (FR), defined as FR=EC50(mutant strain)/EC50(HIV-1 strain LAI), was determined.

[1] = test system: HIV strain A (protease mutant); experiment: Antiviral spectrum, mutant HIV strain A; assay type: cell-based; conditions: FR=EC50(mutant strain)/EC50(HIV-1 strain LAI); calculated averages
Method: as §1, with “EC90. These values represent the amount of the compound required to protect 50% and 90%, respectively, of the cells from the cytopathogenic effect of the virus.” for “EC90.”, “respectively. […]” for “respectively.”
as §2

[2] = test system: HIV strain B (protease mutant); experiment: Antiviral spectrum, mutant HIV strain B; assay type: cell-based; conditions: FR=EC50(mutant strain)/EC50(HIV-1 strain LAI); calculated averages
Method: as §1, with “EC90. These values represent the amount of the compound required to protect 50% and 90%, respectively, of the cells from the cytopathogenic effect of the virus.” for “EC90.”, “respectively. […]” for “respectively.”
as §2

[3] = test system: HIV strain C (protease mutant); experiment: Antiviral spectrum, mutant HIV strain C; assay type: cell-based; conditions: FR=EC50(mutant strain)/EC50(HIV-1 strain LAI); calculated averages
Method: as §1, with “EC90. These values represent the amount of the compound required to protect 50% and 90%, respectively, of the cells from the cytopathogenic effect of the virus.” for “EC90.”, “respectively. […]” for “respectively.”
as §2

[4] = test system: HIV strain D (protease mutant); experiment: Antiviral spectrum, mutant HIV strain D; assay type: cell-based; conditions: FR=EC50(mutant strain)/EC50(HIV-1 strain LAI); calculated averages
Method: as §1, with “EC90. These values represent the amount of the compound required to protect 50% and 90%, respectively, of the cells from the cytopathogenic effect of the virus.” for “EC90.”, “respectively. […]” for “respectively.”
as §2

[5] = test system: HIV strain E (protease mutant); experiment: Antiviral spectrum, mutant HIV strain E; assay type: cell-based; conditions: FR=EC50(mutant strain)/EC50(HIV-1 strain LAI); calculated averages
Method: as §1, with “EC90. These values represent the amount of the compound required to protect 50% and 90%, respectively, of the cells from the cytopathogenic effect of the virus.” for “EC90.”, “respectively. […]” for “respectively.”
as §2

[6] = test system: HIV strain F (protease mutant); experiment: Antiviral spectrum, mutant HIV strain F; assay type: cell-based; conditions: FR=EC50(mutant strain)/EC50(HIV-1 strain LAI); calculated averages
Method: as §1, with “EC90. These values represent the amount of the compound required to protect 50% and 90%, respectively, of the cells from the cytopathogenic effect of the virus.” for “EC90.”, “respectively. […]” for “respectively.”
as §2

[7] = test system: HIV strain G (protease mutant); experiment: Antiviral spectrum, mutant HIV strain G; assay type: cell-based; conditions: FR=EC50(mutant strain)/EC50(HIV-1 strain LAI); calculated averages
Method: as §1, with “EC90. These values represent the amount of the compound required to protect 50% and 90%, respectively, of the cells from the cytopathogenic effect of the virus.” for “EC90.”, “respectively. […]” for “respectively.”
as §2

[8] = Toxicity on mock-infected MT4 cells (MTT); assay type: cell-based; conditions: human
Method: as §1, with “EC90. These values represent the amount of the compound required to protect 50% and 90%, respectively, of the cells from the cytopathogenic effect of the virus.” for “EC90.”
as §2

[9] = Oral availability in the rat (serum concentration, LC-MS); assay type: in vivo; conditions: both sexes, 10 mg/kg
Method: The oral availability of a selected compound was evaluated in a standard set of kinetic experiments, primarily in male and female rats and secondarily in male and female dogs. The compound was formulated as a 20 mg/ml solution or suspension in DMSO, PEG400 or cyclodextin 40% (CD40%) in water. For most experiments in the rat, three dosing groups were formed: 1/single intraperitoneal dose at 20 mg/kg using the DMSO formulation; 2/single oral dose at 20 mg/kg using the PEG400 formulation and 3/single oral dose at 20 mg/kg using the cyclodextrin formulation. In the dog, only the oral route of administration was used. Blood was sampled at regular time intervals after dosing and drug concentrations in the serum were determined using a LC-MS bioanalytical method. Serum concentrations were expressed in […] after normalization to 10 mg/kg. Below, the serum concentration at 30 minutes and at 3 hours is listed as these values reflect the extent of absorption (30′) and the speed of elimination (180′). The oral bioavailability in the rat was examined using DMSO and PEG formulations (cfr supra). The serum concentration following administration of 10 mg/kg of compound 1 was 10.2 ng/ml at 30 min (DMSO) and 22.2 ng/ml (PEG). The intraperitoneal absorption of a dose of 10 mg/kg (DMSO formulation) was 2076 ng/ml 30 minutes (min) following administration and 208 ng/ml 180 min following administration.

| Compound | WT (pEC50) (HIV-1 strain LAI; calculated averages) | FR towards mutant A [1] | FR towards mutant B [2] | FR towards mutant C [3] | FR towards mutant D [4] | FR towards mutant E [5] | FR towards mutant F [6] | FR towards mutant G [7] | EC50 (HIV-1 strain LAI; Human immunodeficiency virus 1, calculated averages, read-out: WT (pEC50) (converted)) [nM] | CC50 at 5 days [8] [nM] | concentration at 30 min ([9]; ip, intraperitoneal, DMSO formulation, 30 min following administration, read-out: intraperitoneal absorption (serum concentration)) [ng/mL] | concentration at 180 min ([9]; ip, intraperitoneal, DMSO formulation, 180 min following administration, read-out: intraperitoneal absorption (serum concentration)) [ng/mL] | concentration at 30 min ([9]; po, oral, DMSO formulation, at 30 min, read-out: serum concentration) [ng/mL] | concentration at 30 min ([9]; po, oral, PEG formulation, read-out: serum concentration) [ng/mL] |
| --- | --- | --- | --- | --- | --- | --- | --- | --- | --- | --- | --- | --- | --- | --- |
| 5-Methyl-isoxazole-4-carboxylic acid{3-[(3-amino-benzo[d]isoxazole-5-sulfonyl)-isobutyl-amino]-1-benzyl-2-hydroxy-propyl}-amide [Compound 6] | 6.2 | 16 | 5.6 | 5.5 | 16 | 7.2 | 16 | 16 | – | – | – | – | – | – |
| CC(C)CN(C[C@@H](O)[C@H](Cc1ccccc1)NC(=O)O[C@H]1CO[C@H]2OCC[C@H]21)S(=O)(=O)c1ccc2onc(N)c2c1 [Compound 1, {3-[(3-Amino-benzo[d]isoxazole-5-sulfonyl)-isobutyl-amino]-1-benzyl-2-hydroxy-propyl}-carbamic acid hexahydro-furo[2,3-b]furan-3-yl ester] | – | 0.63 | 0.78 | 0.49 | 0.35 | 0.30 | 0.85 | 6.9 | 7.94 | > 100000 | 2080 | 208 | 10.2 | 22.2 |
